Test systems include OVCAR-5; NCI-H226; CAKI-1; HCT-116; SN12C; CCRF-CEM; HT-29; U-251; A549; NCI-H522; HCT-15; UACC-62; SW-620; MOLT-4; K562; UO-31; SF-268; HCC 2998; BT-549; OVCAR-8.
Test in all cases: growth of human tumour cells (NCI), 48 h

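All cell lines were grown in 96-well plates and treated with compound for 48 hours. The concentration for 50% growth inhibition is given as GI50.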 Activity calls are given as the source filed them. Rule as the data show it: active = GI50 up to about 1.1 µM and inactive = higher. A value given as a limit tells only on which side of the number the result lay.

For the molecule `BrCC[N+]12CC[N+](CCBr)(CC1)C2`, the GI50 in the assay on OVCAR-5, in the assay on NCI-H226, in the assay on CAKI-1, in the assay with HCT-116, in the assay on SN12C and in the assay with CCRF-CEM was > 100 µM (inactive) in each case. Moreover, the GI50 in the assay on HT-29 was > 100 µM (inactive); in the assay with U-251, > 100 µM (inactive); with A549, > 100 µM (inactive); with NCI-H522, > 100 µM (inactive); in the assay on HCT-15 it was above 100 µM; in the assay with UACC-62, > 100 µM (inactive). Also, the GI50 in the assay on SW-620, in the assay with MOLT-4, with K562, in the assay on UO-31, with SF-268 and in the assay with HCC 2998 was > 100 µM (inactive) in each case. The GI50 in the assay on BT-549 and with OVCAR-8 was > 100 µM (inactive) each time.
`CN(C)CCCC12CCCCC1=Nc1ccccc12` (stereo not given): the GI50 is > 100 µM (inactive) in the assay with OVCAR-5; > 100 µM (inactive) in the assay on NCI-H226; > 100 µM (inactive) with CAKI-1; > 100 µM (inactive) in the assay with HCT-116; > 100 µM (inactive) with SN12C; 76.6 µM (inactive) in the assay on CCRF-CEM. The GI50 in the assay on HT-29 was > 100 µM (inactive); in the assay with U-251, > 100 µM (inactive); in the assay with A549 it was > 100 µM (inactive); with NCI-H522, 97.7 µM (inactive); in the assay on HCT-15 it was above 100 µM; in the assay with UACC-62 it was > 100 µM (inactive). Moreover, the GI50 in the assay with SW-620 is > 100 µM (inactive); with MOLT-4, > 100 µM (inactive); with K562, 74 µM (inactive); with UO-31, > 100 µM (inactive); with SF-268 it was > 100 µM (inactive); with HCC 2998, > 100 µM (inactive). The GI50 with BT-549 and in the assay on OVCAR-8 was > 100 µM (inactive) throughout.
Regarding `SC1=Nc2ccccc2-c2nc(-c3cccc(Cl)c3)cc(-c3ccccc3)c2C1`, the GI50 is 5.77 µM (inactive) in the assay on OVCAR-5; 3.68 µM (inactive) with NCI-H226; 2 µM (inactive) in the assay with CAKI-1; 1.64 µM (inactive) in the assay with HCT-116; 2.08 µM (inactive) in the assay on SN12C; 2.36 µM (inactive) in the assay with CCRF-CEM. The GI50 is 2.38 µM (inactive) in the assay on HT-29; 1.19 µM (inactive) in the assay with U-251; 1.75 µM (inactive) in the assay with A549; 2.06 µM (inactive) in the assay with NCI-H522; 7.08 µM in the assay on HCT-15; 1.61 µM (inactive) in the assay with UACC-62. In addition, the GI50 was 2.98 µM (inactive) in the assay with SW-620; 19.6 µM (inactive) in the assay on MOLT-4; 4.86 µM (inactive) in the assay with K562; 1.93 µM (inactive) with UO-31; 3.79 µM (inactive) with SF-268; 3.24 µM (inactive) in the assay with HCC 2998. Further, the GI50 in the assay with BT-549 was 5 µM (inactive); in the assay with OVCAR-8 it was 1.07 µM (active).
